Values quoted from earlier work, collected in patent US9884017B2, “Foamable vehicles and pharmaceutical compositions comprising aprotic polar solvents and uses thereof” (Foamix Pharmaceuticals Ltd., priority 2009, dated 2018).

Conditions: 25° C.

Structure (SMILES) | Dielectric constant | Polarity [Debye]
CN(C)C=O [DMF, dimethylformamide] | 36.7 | 3.8
C[S+](C)[O-] [DMSO, Dimethyl sulfoxide] | 46.4 | 4.3
